Assays:
[1] = system: L-Trp uptake in BxPC-3 cells; test: Trp uptake assay in BxPC-3 cells (HPLC-MS/MS); assay type: cell-based; conditions: BxPC-3 starved for L-Trp 72 h, ±IFN-γ; 5 mM L-Leu, 1 mM 1-MT, 5 µM compound
Protocol: GraphPad Prism 9.0 (GraphPad Software, Inc, US) to generate dose-response curves and obtain […]
IDO1 promoter reporter gene assay
HEK293T cells (25,000 cells/well) were reverse-transfected with pXPG-IDO1[16] (4 µg/96-well plate, kindly provided by Gina M. Doody, Leeds, UK) and pRL-TK (300 ng/96-well plate, Promega, US) using Lipofectamine™ 2000 (Invitrogen, USA) pri or to incubation for 24 h. Afterwards, cells were treated with 50 ng/mL IFN-γ and the compounds for 48 h. Luminescence generated by the Fluc reporter and the control reporter Rluc was measured using the Dual-Glo ® Luciferase Assay System (Promega, US) on the Spark® Multimode Microplate Reader (Tecan, AT). To determine the IDO1 promoter activity, Fluc signals were divided by Rluc signals and normalized to the values of the DMSO control. Data analysis was performed using a non-linear regression curve fit and […]
BxPC-3 cells (30,000 cells/well) were seeded in 96-well plates in Trp-free RPMI 1640 medium and incubated for 48 h prior addition of 50 ng/mL IFN-γ. Trp starvation was continued for another 24 h. Afterwards, medium was exchanged for Trp-free medium containing the control inhibitors 5 mM L-Leu (inhibitor of system-L amino acid transporters (LAT)), 1 mM 1-methyl-L-tryptophan (inhibitor of tryptophanyl-tRNA synthetase (TrpRS)) and compounds and cells were incubated for 30 min. Subsequently, 50 µM L-Trp was added and samples were incubated for another 30 min.
The supernatant was transferred to a new plate, trichloroacetic acid was added to a final concentration of 7% (v/v) and plates were incubated for 15 min at room temperature. Samples were centrifuged for 10 min at 1800 x g and L-Trp was quantified by HPLC-MS/MS using the LTQ Velos Pro and Dionex HPLC (Thermo Fisher Scientific, US). Data analysis was performed with Xcalibur™ (Thermo Fisher Scientific, US) and repres ented using GraphPad Prism 9.0 (GraphPad […]
RNA purification and RT-qPCR
HeLa cells (250,000 cells/well) were seeded in 6-well plates and incubated for 24 h prior addition of 50 ng/mL IFN-γ and compounds. […]

His-tagged TDO = target: T1, His-tagged TDO (Homo sapiens, UniProt P48775); test: TDO Activity Assay; assay type: biochemical; conditions: 50 µM; 120 min at 37 °C
T1 construct: His; purchased BPS Bioscience 72035 (kit)
Protocol: Inhibition of tryptophan 2,3-dioxygenase (TDO) was tested using the Universal IDO1/IDO2/TDO Inhibitor Screening Assay Kit (cat# 72035, BPS Bioscience, US). 500 ng His-tagged TDO in TDO Assay Buffer was incubated with Reaction Solution and 50 µM Test Inhibitor (0.5% (v/v) DMSO) for 120 min at 37°C with slow shaking in the dark. Afterwards, absorbance at 321 nm was recorded on the Spark® Multimode Microplate Reader (Tecan, AT), all values were subtracted by the background and normalized to the DMSO control. […]
(v/v) component 2 in component 1) and 50 µM Test Inhibitor (0.5% (v/v) DMSO) for 90 min at 30°C with slow shaking in the dark prior to initiation of the reaction by addition of 20% (v/v) IDO2 Substrate. Samples were incubated for 120 min at 30°C with slow shaking in the dark. […]

T1 sequence (P48775 whole entry): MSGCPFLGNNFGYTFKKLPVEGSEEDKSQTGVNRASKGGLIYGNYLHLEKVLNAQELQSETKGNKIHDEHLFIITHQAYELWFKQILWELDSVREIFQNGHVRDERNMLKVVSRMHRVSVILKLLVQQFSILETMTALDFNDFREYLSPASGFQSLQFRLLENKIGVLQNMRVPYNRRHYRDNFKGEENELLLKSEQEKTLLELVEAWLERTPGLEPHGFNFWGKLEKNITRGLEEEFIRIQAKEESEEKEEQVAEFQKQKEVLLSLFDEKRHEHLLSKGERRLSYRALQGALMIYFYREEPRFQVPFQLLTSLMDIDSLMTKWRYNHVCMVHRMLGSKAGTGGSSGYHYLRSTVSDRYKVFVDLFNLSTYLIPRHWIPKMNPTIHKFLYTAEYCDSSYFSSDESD

Question: `CCOC(=O)C1=CC[C@](C(=O)OC)(c2cc3ccccc3n2C)N(S(=O)(=O)c2ccc(C)cc2)[C@@H]1C(=O)OC(C)(C)C` [Compound 3d] was tested. Which “uptake (import) of L-Trp” value [1] did it give?
Answer: does not interfere

Question: What about the “inhibition of TDO (result in words)” value (His-tagged TDO) of the same compound?
Answer: did not inhibit

Source: article PMC9804781, “Identification of a Novel Pseudo‐Natural Product Type IV IDO1 Inhibitor Chemotype” (Angewandte Chemie (International Ed. in English), 2022)
